{
  "source": "paper PMC12005787",
  "about": "“Synthetic Lethality of SHP2 and XIAP Suppresses Proliferation and Metastasis in KRAS‐mutant Nonsmall Cell Lung Cancer” (Advanced Science, 2025)",
  "key": {"ΔSHP2^K325A": {"target": "T1, ΔSHP2^K325A (Homo sapiens, UniProt Q06124, K325A)", "T1 construct": "His‐ΔSHP2, encompassing the peptide from amino acids 205–593 retaining PTP activity; His; made in house; host or cells: E. coli BL21", "T1 sequence (Q06124 205-593 K325A)": "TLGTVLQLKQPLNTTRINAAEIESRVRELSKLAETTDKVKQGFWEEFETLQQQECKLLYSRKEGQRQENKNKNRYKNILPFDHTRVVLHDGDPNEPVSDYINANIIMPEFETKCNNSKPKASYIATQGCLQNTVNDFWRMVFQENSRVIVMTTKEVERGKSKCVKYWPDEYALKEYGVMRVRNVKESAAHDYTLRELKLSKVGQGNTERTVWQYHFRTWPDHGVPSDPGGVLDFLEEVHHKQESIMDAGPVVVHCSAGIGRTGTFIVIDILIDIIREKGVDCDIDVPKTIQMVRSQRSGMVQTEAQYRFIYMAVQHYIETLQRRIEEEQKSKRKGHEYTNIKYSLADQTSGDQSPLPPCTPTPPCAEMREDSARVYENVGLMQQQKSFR", "experiment": "PTP activity assay of K325A mutant", "assay_type": "biochemical", "protocol": "Catalytic activity screening methods for PTPs using candidate compounds were performed as previously described.^[ [77] ^] In brief, soluble fusion PTP proteins, His‐ΔSHP2, encompassing the peptide from amino acids 205–593 retaining PTP activity, His‐ΔSHP2^K325A, His‐ΔSHP1, encompassing the peptide from amino acids 202–595 retaining PTP activity, His‐PTP1B, His‐HePTP, His‐VHR, and His‐TCPTP were cloned, expressed, and purified in E. coli. After determining protein concentration using bicinchoninic acid (BCA) assay kit, 1 µg fusion protein, 10 µM library compound were added in 100 µL reaction mixture (55 mM 4‐(2‐hydroxyethyl)‐1‐piperazineethanesulfonic acid [HEPES], 100 mM sodium chloride [NaCl], 0.5 mM ethylenediaminetetraacetic acid [EDTA], 1 mM dithiothreitol [DTT], 0.01% Triton X‐100, 0.002% bovine serum albumin [BSA], and 0.1% dimethyl sulfoxide [DMSO]) and incubated at 37 °C for 30 min in the dark, with Na3VO4 as positive control. The detection substrate DiFMUP (50 µM) was promptly added to each reaction and functioned at 37 °C for 30 min in the dark. The fluorescence intensity was then measured using Multimode Plate Reader (λa = 358 nm, λe = 455 nm, PerkinElmer, USA).\nA single‐point mutation assay of the pET32a‐ΔSHP2 plasmid was performed using the QuickMutation Site‐Directed Mutagenesis Kit (Beyotime, Shanghai, China). […]"}, "His‐SHP2": {"target": "T2, His‐SHP2 (Homo sapiens, UniProt Q06124)", "T2 construct": "His; made in house; host or cells: E. coli", "experiment": "Isothermal titration calorimetry", "assay_type": "binding", "conditions": "read-out: KD value (ITC)", "protocol": "(§1) The purified His‐ΔSHP2, His‐SHP2, or His‐ΔSHP2^K325A proteins were dialyzed overnight in dialysis buffer (20 mM HEPES, 0.15 M NaCl, 1 mM TCEP, 10% glycerol, pH 7.5). The protein concentration was determined using the BCA Protein Assay Kit, and the purity of the proteins was detected by Coomassie Brilliant Blue staining. ITC experiments were performed when the protein concentration was higher than 2 mg mL^−1 and the purity was greater than 90%. The instrument (Malvern Instruments, USA) was considered to be functioning optimally for compound and protein titration experiments when the DP value was < 0.05 µcal s^−1 by the water droplet experiment. After the sample cell was cleaned twice with protein dialysis buffer, a protein sample (300 µL) was loaded to the sample cell, an equal amount of ultrapure water was added to the reference cell, and the compound solution dissolved with the same dialysis buffer was put into the corresponding cell, in which the protein‐compound molar ratio was 1:10–1:20. The parameters were adjusted based on the curve‐fitting results to determine the optimal binding concentration gradient. Based on the exothermic changes in the reaction, the entropy increase and enthalpy change were analyzed using software fitting to obtain parameters such as the binding coefficient and affinity constant between the small molecules and proteins."}, "His‐ΔSHP2": {"target": "T3, His‐ΔSHP2 (Homo sapiens, UniProt Q06124)", "T3 construct": "His‐ΔSHP2, encompassing the peptide from amino acids 205–593 retaining PTP activity; His; made in house; host or cells: E. coli", "T3 sequence (Q06124 205-593)": "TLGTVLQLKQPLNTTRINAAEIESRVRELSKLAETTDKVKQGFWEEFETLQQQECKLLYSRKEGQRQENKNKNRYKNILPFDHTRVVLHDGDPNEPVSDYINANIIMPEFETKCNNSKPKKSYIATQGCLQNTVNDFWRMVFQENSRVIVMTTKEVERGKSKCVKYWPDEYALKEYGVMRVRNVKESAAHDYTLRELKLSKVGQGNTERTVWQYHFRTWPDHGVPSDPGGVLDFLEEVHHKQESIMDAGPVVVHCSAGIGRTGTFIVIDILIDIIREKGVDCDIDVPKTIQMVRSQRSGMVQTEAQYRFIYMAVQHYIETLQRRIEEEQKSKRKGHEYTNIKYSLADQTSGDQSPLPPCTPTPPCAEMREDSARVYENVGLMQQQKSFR", "experiment": "Isothermal titration calorimetry", "assay_type": "binding", "conditions": "read-out: KD value (ITC)", "protocol": "as §1"}, "SW620 cells": {"system": "SW620 cells", "experiment": "Cell viability assay (CCK-8)", "assay_type": "cell-based", "conditions": "Homo sapiens, SW-620", "protocol": "supplies are listed in Supplementary Table S5. The relevant reagents for protein extraction from Escherichia coli are listed in Supplementary Table S6. Inhibitory effects of embelin on KRAS-mutant and wild-type cells are listed in Supplementary Table S7.\nFor the adherent cell viability assay, cells in the logarithmic growth phase were seeded in 96-well culture plates at a density of 5×103 well-1 and incubated overnight. Diluted compounds or DMSO were added, or specific treatments were incubated at 37 °C and 5% CO2 for 24 h or 48 h. Cell viability was determined using CCK-8 or CellLightTM Cell Viability Assay Kit, according to the manufacturer's protocol. The luminescence signals of the treated samples were normalized to those of the DMSO group. […]"}, "[1]": {"system": "MIG‐6 and SPRY2 in NCI‐H2122 cells", "experiment": "MIG-6 and SPRY2 protein expression (western blotting)", "assay_type": "cell-based, human", "conditions": "24 h", "protocol": "(§2) Transwell, and the subsequent experiments were performed as described in Cell migration […]\n(§3) After given treatment, cells were lysed by ice bath with radio-immunoprecipitation assay (RIPA) buffer containing 1% phenylmethylsulphonyl fluoride (PMSF), and the supernatant was collected by centrifugation, and the protein concentration was subsequently determined using a BCA Protein Assay Kit. Depending on the molecular weight of the proteins, different concentrations of sodium dodecyl-sulfate polyacrylamide gel electrophoresis (SDS-PAGE) separator gels were prepared for protein electrophoresis. Equal amounts of proteins were sampled and subjected to SDS-PAGE gel electrophoresis; at the end of electrophoresis, the proteins were transferred to nitrocellulose (NC) membranes. The NC membrane was blocked with 5% skim milk and covered with a specific primary antibody overnight at 4 °C, in which the primary antibody was diluted at a ratio of 1:500–1:5000. The NC membrane was […]"}, "His‐ΔSHP2^K325A": {"target": "T4, His‐ΔSHP2^K325A (Homo sapiens, UniProt Q06124, K325A)", "T4 construct": "His‐ΔSHP2, encompassing the peptide from amino acids 205–593 retaining PTP activity; His; made in house; host or cells: E. coli BL21", "T4 sequence (Q06124 205-593 K325A)": "as the sequence (Q06124 205-593 K325A) above", "experiment": "Isothermal titration calorimetry", "assay_type": "binding", "conditions": "read-out: KD value (ITC)", "protocol": "as §1, with “proteins. […]” for “proteins.”"}, "[2]": {"system": "SHP2 and ERK phosphorylation in KRAS, HRAS and NRAS‐mutant cells", "experiment": "SHP2 and ERK phosphorylation in RAS-mutant cells (western blotting)", "assay_type": "cell-based", "conditions": "KRAS G12C, G12S, G13D", "protocol": "as §2, §3"}},
  "note": "Read-outs that look alike come from different tables or passages of the source.",
  "data": [
    {"smiles": "CCCCCCCCCCCC1=C(O)C(=O)C=C(O)C1=O", "note": "[Embelin]", "values": [
      {"measurement": "inhibitory effect on activity of ΔSHP2^K325A versus wild-type ΔSHP2", "setting": "ΔSHP2^K325A", "result": "notably diminished the inhibitory effect"},
      {"measurement": "Kd", "setting": "His‐SHP2", "result": 0.0229, "unit": "µM"},
      {"measurement": "Kd", "setting": "His‐ΔSHP2", "result": 0.22, "unit": "µM"},
      {"measurement": "IC50", "setting": "SW620 cells; SW620, 48 h, read-out: IC50 at 48 h", "result": "5.06 ± 0.45", "unit": "µM"},
      {"measurement": "IC50", "setting": "SW620 cells; SW620, KRAS G12V, 24 h, read-out: IC50 at 24 h", "result": "18.6 ± 0.4", "unit": "µM"},
      {"measurement": "expression of MIG‐6 and SPRY2", "setting": "[1]", "result": "significantly promoted the expression"},
      {"measurement": "Kd", "setting": "His‐ΔSHP2^K325A", "result": 0.346, "unit": "µM"},
      {"measurement": "effect on SHP2 phosphorylation", "setting": "[2]", "result": "inhibited SHP2 phosphorylation"},
      {"measurement": "effect on downstream ERK phosphorylation", "setting": "[2]", "result": "significantly reduced"}
    ]}
  ]
}
